Assay results: patent US20260070917A1, “CYCLIN DEPENDENT KINASE DEGRADERS AND METHODS OF USE THEREOF” (Differentiated Therapeutics Inc, priority 2023, published 2026)

Tests used:
Format in all cases: cell-based
CDK2 = biological target: T1, CDK2 (Homo sapiens, UniProt P24941); assay: HiBit Assay Protocol for CDK2 (HIBIT protein quantification, degradation); conditions: HEK293-CDK2-Hibit cells, compound treatment for 6 hours; for DC50: ABS DC50
T1 construct: host or cells: HEK293-CDK2-Hibit
Method in brief: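 DC50 comes from a fitted curve of remaining CDK2-HiBiT luminescence, referenced to DMSO-treated cells and medium-only wells. HEK293-CDK2-HiBiT cells, plated the previous night, received compounds in a 10-point, 3-fold series for 6 h before lysis with LgBiT-containing Nano-Glo HiBiT reagent.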

CCNE1 [1] = biological target: T2, CCNE1 (Homo sapiens, UniProt P24864); assay: HiBit Assay Protocol for CCNE1 (HIBIT protein quantification, degradation); conditions: HEK293-CCNE1-Hibit cells, compound treatment for 6 hours
T2 construct: host or cells: HEK293-CCNE1-Hibit
T2 sequence (P24864 whole entry): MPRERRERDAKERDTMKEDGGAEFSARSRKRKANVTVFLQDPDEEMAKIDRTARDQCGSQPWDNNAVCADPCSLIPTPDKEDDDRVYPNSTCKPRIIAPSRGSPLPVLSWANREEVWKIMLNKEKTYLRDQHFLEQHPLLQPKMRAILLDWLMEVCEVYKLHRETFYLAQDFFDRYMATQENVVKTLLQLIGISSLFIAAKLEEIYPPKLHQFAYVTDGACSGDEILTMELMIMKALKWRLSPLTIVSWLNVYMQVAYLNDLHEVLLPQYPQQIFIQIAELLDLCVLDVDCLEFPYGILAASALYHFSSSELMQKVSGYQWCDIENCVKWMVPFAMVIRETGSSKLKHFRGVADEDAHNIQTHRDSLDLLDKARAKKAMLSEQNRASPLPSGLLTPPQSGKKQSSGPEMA
Method in brief: (§1)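 Degradation readout: lytic Nano-Glo HiBiT luminescence after 6 h exposure of HEK293-CCNE1-HiBiT cells to 10-point, 3-fold serial dilutions. Signal was scaled between medium-only and DMSO-treated wells, and DC50 came from curve fits.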

CCNE1 [2] = biological target: T3, CCNE1 (Homo sapiens, UniProt P24864+P24941); assay: as above; conditions: HEK293-CCNE1-Hibit cells, compound treatment for 6 hours, ABS DC50
T3 construct: host or cells: HEK293-CCNE1-Hibit
T3 sequence (P24864 whole entry, one chain of several): as the sequence (P24864 whole entry) above
Method in brief: as §1

CDK9 = biological target: T4, CDK9 (Homo sapiens, UniProt P50750); assay: HiBit Assay Protocol for CDK9 (HIBIT protein quantification, degradation); conditions: 6 h, HEK293-CDK9-Hibit cells, compound treatment for 6 hours; read-out: CDK9 HIBIT Protein Quantification Maximum
T4 construct: host or cells: HEK293-CDK9-Hibit
T4 sequence (P50750 whole entry): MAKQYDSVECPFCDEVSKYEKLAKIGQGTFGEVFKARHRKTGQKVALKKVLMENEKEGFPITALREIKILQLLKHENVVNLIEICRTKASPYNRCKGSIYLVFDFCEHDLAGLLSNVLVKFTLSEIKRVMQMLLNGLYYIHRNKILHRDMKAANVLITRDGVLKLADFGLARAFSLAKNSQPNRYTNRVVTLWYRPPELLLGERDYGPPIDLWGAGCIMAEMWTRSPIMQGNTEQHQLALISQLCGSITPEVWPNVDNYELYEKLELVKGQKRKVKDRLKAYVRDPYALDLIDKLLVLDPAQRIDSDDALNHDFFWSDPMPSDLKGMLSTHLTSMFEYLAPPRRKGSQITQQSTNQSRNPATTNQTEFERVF
Method in brief: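 Degradation read-out: luminescence after lytic HiBiT/LgBiT detection in HEK293-CDK9-HiBiT cells exposed 6 h to 10-point, 3-fold compound dilutions. Signal scaled between 0.1% DMSO-treated cells and medium alone; DC50 fitted from the curve.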

| SMILES | CDK2 HIBIT Protein Quantification Maximum (CDK2) | DC50 (CDK2) | CCNE1 HIBIT Protein Quantification Maximum (CCNE1 [1]) | DC50 (CCNE1 [2]) | Dmax (CDK9) |
| --- | --- | --- | --- | --- | --- |
| Cn1nc(N2CCC(=O)NC2=O)c2ccc(C3CCN(Cc4cccc(S(=O)(=O)N5CC[C@@H](Nc6ncc7c(n6)N([C@@H]6CCC[C@@H](O)C6)C(=O)C76CC6)[C@H](F)C5)c4)CC3)cc21 [Compound 158] | 80% | 2.64 nM | 56% | 5.96 nM | 13% |
| Cc1c(CN2CCC(c3ccc4c(N5CCC(=O)NC5=O)nn(C)c4c3)CC2)cccc1S(=O)(=O)N1CCC(Nc2ncc3c(n2)N([C@@H]2CCC[C@@H](O)C2)C(=O)C32CC2)CC1 [Compound 159, 1-[6-(1-{[3-(4-{7′-[(1R,3R)-3-Hydroxycyclohexyl]-6′-oxospiro [cyclopropane-1,5′-pyrrolo[2,3-d]pyrimidin]-2′-ylamino}piperidin-1-ylsulfonyl)-2-methylphenyl]methyl}piperidin-4-yl)-1-methylindazol-3-yl]-1,3-diazinane-2,4-dione] | 68% | 2.83 nM | 54% | 5.99 nM | 49% |
| C[C@@H](C1CC1)N1C(=O)C2(CC2)c2cnc(NC3CCN(S(=O)(=O)c4cccc(CN5CCC(c6ccc7c(N8CCC(=O)NC8=O)nn(C)c7c6)CC5)c4)CC3)nc21 [Compound 164, 1-[6-(1-{[3-(4-{7′-[(1S)-1-Cyclopropylethyl]-6′-oxospiro[cyclopropane-1,5′-pyrrolo[2,3-d]pyrimidin]-2′-ylamino}piperidin-1-ylsulfonyl)phenyl]methyl}piperidin-4-yl)-1-methylindazol-3-yl]-1,3-diazinane-2,4-dione] | 85% | 2.63 nM | 54% | 6.18 nM | 12% |
| CC1CN(Cc2cccc(S(=O)(=O)N3CCC(Nc4ncc5c(n4)N([C@@H]4CCC[C@@H](O)C4)C(=O)C54CC4)CC3)c2)CCC1c1ccc2c(N3CCC(=O)NC3=O)nn(C)c2c1 (stereo partly drawn) [Compound 182, 1-[6-(1-{[3-(4-{7′-[(1R,3R)-3-Hydroxycyclohexyl]-6′-oxospiro[cyclopropane-1,5′-pyrrolo[2,3-d]pyrimidin]-2′-ylamino}piperidin-1-ylsulfonyl)phenyl]methyl}-3-methylpiperidin-4-yl)-1-methylindazol-3-yl]-1,3-diazinane-2,4-dione] | 82% | 4.8 nM | 52% | 8.09 nM | 46% |
